Publication PMC5063900, “A phase 1 study of the safety, tolerability, pharmacokinetics, and pharmacodynamics of TAK-063, a selective PDE10A inhibitor” (Psychopharmacology, 2016)

Legend:
[1] = CNS Vital Signs (CNSVS) computerized cognition battery; format: in vivo, human; settings: for Composite memory domain score, Difference (TAK-063 LS mean - placebo LS mean, change from baseline) / Executive functioning domain score, Difference (TAK-063 LS mean - placebo LS mean, change from baseline) / Processing speed domain score, Difference (TAK-063 LS mean - placebo LS mean, change from baseline) / Psychomotor speed domain score, Difference (TAK-063 LS mean - placebo LS mean, change from baseline) / Reaction time domain score, Difference (TAK-063 LS mean - placebo LS mean, change from baseline) / Reasoning domain score, Difference (TAK-063 LS mean - placebo LS mean, change from baseline) / Sustained attention domain score, Difference (TAK-063 LS mean - placebo LS mean, change from baseline) / Verbal memory domain score, Difference (TAK-063 LS mean - placebo LS mean, change from baseline) / Visual memory domain score, Difference (TAK-063 LS mean - placebo LS mean, change from baseline) / Working memory domain score, Difference (TAK-063 LS mean - placebo LS mean, change from baseline) / Cognitive flexibility domain score, Difference (TAK-063 LS mean - placebo LS mean, change from baseline): 6 h postdose, fasting
Procedure: Cognitive flexibility, attention, executive function, memory, reasoning, motor control, psychomotor speed, reaction time, and information processing speed were assessed predose and at 2 and 6 h following TAK-063 treatment using the CNSVS computerized cognition battery. The CNSVS cognition battery is a well-validated, sensitive measure and included the following tests: verbal and visual memory (VBM and VIM) tests, finger-tapping test, symbol digit coding test, Stroop test, shifting attention test, the nonverbal reasoning test, and the 4-part continuous performance test (Gualtieri and Johnson [2006]). Standardized domain scores for cognitive flexibility, composite memory, executive functioning, processing speed, psychomotor speed, reaction time, reasoning, sustained attention, verbal memory, visual memory, and working memory were reported. In all domains, a decrease in the standardized domain score is indicative of impairment.
All statistical analyses were generated using SAS Version 9.2 (SAS, Cary, NC, USA). The PK parameters were derived using non-compartmental methods with WinNonlin Enterprise Version 6.3 (Pharsight Corp., Mountain View, CA, USA). Frequency or descriptive statistics were used for summary of data. Where indicated, percent coefficient of variation was included in the summary of continuous data. All statistical tests were 2-tailed at α = 0.05 level for significance unless otherwise stated. A power model was used to evaluate dose proportionality by race for fasted subjects; in the event of no observed race effect, dose proportionality was assessed for all subjects. To evaluate the food effect, a paired t test was performed on T max and natural log-transformed C max, and AUCs. An ANCOVA model with baseline scores and race as covariates was used to assess the effects of TAK-063 on CNSVS domain scores.

[2] = stated in discussion without method or reference; cited from earlier work

COc1cn(-c2ccc(-n3cccn3)cc2F)nc(-c2ccnn2-c2ccccc2)c1=O [TAK-063]
Composite memory domain score, Difference (TAK-063 LS mean - placebo LS mean, change from baseline) ([1]; 3 mg): -1.4 | Executive functioning domain score, Difference (TAK-063 LS mean - placebo LS mean, change from baseline) ([1]; 3 mg): 2.9 | Processing speed domain score, Difference (TAK-063 LS mean - placebo LS mean, change from baseline) ([1]; 3 mg): 2.5 | Psychomotor speed domain score, Difference (TAK-063 LS mean - placebo LS mean, change from baseline) ([1]; 3 mg): -1.8 | Reaction time domain score, Difference (TAK-063 LS mean - placebo LS mean, change from baseline) ([1]; 3 mg): 1.5 | Reasoning domain score, Difference (TAK-063 LS mean - placebo LS mean, change from baseline) ([1]; 3 mg): 6.9 | Sustained attention domain score, Difference (TAK-063 LS mean - placebo LS mean, change from baseline) ([1]; 3 mg): 15.0 | Verbal memory domain score, Difference (TAK-063 LS mean - placebo LS mean, change from baseline) ([1]; 3 mg): -4.8 | Visual memory domain score, Difference (TAK-063 LS mean - placebo LS mean, change from baseline) ([1]; 3 mg): 4.5 | Working memory domain score, Difference (TAK-063 LS mean - placebo LS mean, change from baseline) ([1]; 3 mg): 9.9 | Cognitive flexibility domain score, Difference (TAK-063 LS mean - placebo LS mean, change from baseline) ([1]; 10 mg): -10.0 | Composite memory domain score, Difference (TAK-063 LS mean - placebo LS mean, change from baseline) ([1]; 10 mg): -1.9 | Executive functioning domain score, Difference (TAK-063 LS mean - placebo LS mean, change from baseline) ([1]; 10 mg): -10.0 | Processing speed domain score, Difference (TAK-063 LS mean - placebo LS mean, change from baseline) ([1]; 10 mg): 0.2 | Psychomotor speed domain score, Difference (TAK-063 LS mean - placebo LS mean, change from baseline) ([1]; 10 mg): -9.6 | Reaction time domain score, Difference (TAK-063 LS mean - placebo LS mean, change from baseline) ([1]; 10 mg): -5.6 | Reasoning domain score, Difference (TAK-063 LS mean - placebo LS mean, change from baseline) ([1]; 10 mg): 2.2 | Sustained attention domain score, Difference (TAK-063 LS mean - placebo LS mean, change from baseline) ([1]; 10 mg): 3.6 | Verbal memory domain score, Difference (TAK-063 LS mean - placebo LS mean, change from baseline) ([1]; 10 mg): 2.9 | Visual memory domain score, Difference (TAK-063 LS mean - placebo LS mean, change from baseline) ([1]; 10 mg): -4.4 | Working memory domain score, Difference (TAK-063 LS mean - placebo LS mean, change from baseline) ([1]; 10 mg): 2.3 | Cognitive flexibility domain score, Difference (TAK-063 LS mean - placebo LS mean, change from baseline) ([1]; 30 mg): -1.9 | Composite memory domain score, Difference (TAK-063 LS mean - placebo LS mean, change from baseline) ([1]; 30 mg): 7.5 | Executive functioning domain score, Difference (TAK-063 LS mean - placebo LS mean, change from baseline) ([1]; 30 mg): -1.2 | Processing speed domain score, Difference (TAK-063 LS mean - placebo LS mean, change from baseline) ([1]; 30 mg): 2.2 | Psychomotor speed domain score, Difference (TAK-063 LS mean - placebo LS mean, change from baseline) ([1]; 30 mg): -3.7 | Reaction time domain score, Difference (TAK-063 LS mean - placebo LS mean, change from baseline) ([1]; 30 mg): -2.8 | Reasoning domain score, Difference (TAK-063 LS mean - placebo LS mean, change from baseline) ([1]; 30 mg): -0.6 | Sustained attention domain score, Difference (TAK-063 LS mean - placebo LS mean, change from baseline) ([1]; 30 mg): 2.5 | Verbal memory domain score, Difference (TAK-063 LS mean - placebo LS mean, change from baseline) ([1]; 30 mg): 3.8 | Visual memory domain score, Difference (TAK-063 LS mean - placebo LS mean, change from baseline) ([1]; 30 mg): 8.3 | Working memory domain score, Difference (TAK-063 LS mean - placebo LS mean, change from baseline) ([1]; 30 mg): -2.2 | Cognitive flexibility domain score, Difference (TAK-063 LS mean - placebo LS mean, change from baseline) ([1]; 100 mg): -5.6 | Composite memory domain score, Difference (TAK-063 LS mean - placebo LS mean, change from baseline) ([1]; 100 mg): -13.5 | Executive functioning domain score, Difference (TAK-063 LS mean - placebo LS mean, change from baseline) ([1]; 100 mg): -2.2 | Processing speed domain score, Difference (TAK-063 LS mean - placebo LS mean, change from baseline) ([1]; 100 mg): -4.7 | Psychomotor speed domain score, Difference (TAK-063 LS mean - placebo LS mean, change from baseline) ([1]; 100 mg): -11.4 | Reaction time domain score, Difference (TAK-063 LS mean - placebo LS mean, change from baseline) ([1]; 100 mg): -3.4 | Reasoning domain score, Difference (TAK-063 LS mean - placebo LS mean, change from baseline) ([1]; 100 mg): 2.0 | Sustained attention domain score, Difference (TAK-063 LS mean - placebo LS mean, change from baseline) ([1]; 100 mg): -0.1 | Verbal memory domain score, Difference (TAK-063 LS mean - placebo LS mean, change from baseline) ([1]; 100 mg): -12.0 | Visual memory domain score, Difference (TAK-063 LS mean - placebo LS mean, change from baseline) ([1]; 100 mg): -8.3 | Working memory domain score, Difference (TAK-063 LS mean - placebo LS mean, change from baseline) ([1]; 100 mg): -6.2 | Cognitive flexibility domain score, Difference (TAK-063 LS mean - placebo LS mean, change from baseline) ([1]; 300 mg): -28.4 | Composite memory domain score, Difference (TAK-063 LS mean - placebo LS mean, change from baseline) ([1]; 300 mg): -19.6 | Executive functioning domain score, Difference (TAK-063 LS mean - placebo LS mean, change from baseline) ([1]; 300 mg): -26.4 | Processing speed domain score, Difference (TAK-063 LS mean - placebo LS mean, change from baseline) ([1]; 300 mg): -1.5 | Psychomotor speed domain score, Difference (TAK-063 LS mean - placebo LS mean, change from baseline) ([1]; 300 mg): -11.1 | Reaction time domain score, Difference (TAK-063 LS mean - placebo LS mean, change from baseline) ([1]; 300 mg): -4.1 | Reasoning domain score, Difference (TAK-063 LS mean - placebo LS mean, change from baseline) ([1]; 300 mg): -2.0 | Sustained attention domain score, Difference (TAK-063 LS mean - placebo LS mean, change from baseline) ([1]; 300 mg): -8.1 | Verbal memory domain score, Difference (TAK-063 LS mean - placebo LS mean, change from baseline) ([1]; 300 mg): -17.3 | Visual memory domain score, Difference (TAK-063 LS mean - placebo LS mean, change from baseline) ([1]; 300 mg): -14.0 | Working memory domain score, Difference (TAK-063 LS mean - placebo LS mean, change from baseline) ([1]; 300 mg): -1.4 | Cognitive flexibility domain score, Difference (TAK-063 LS mean - placebo LS mean, change from baseline) ([1]; 1000 mg): -15.6 | Composite memory domain score, Difference (TAK-063 LS mean - placebo LS mean, change from baseline) ([1]; 1000 mg): -8.6 | Executive functioning domain score, Difference (TAK-063 LS mean - placebo LS mean, change from baseline) ([1]; 1000 mg): -14.1 | Processing speed domain score, Difference (TAK-063 LS mean - placebo LS mean, change from baseline) ([1]; 1000 mg): -19.7 | Psychomotor speed domain score, Difference (TAK-063 LS mean - placebo LS mean, change from baseline) ([1]; 1000 mg): -22.7 | Reaction time domain score, Difference (TAK-063 LS mean - placebo LS mean, change from baseline) ([1]; 1000 mg): -16.5 | Reasoning domain score, Difference (TAK-063 LS mean - placebo LS mean, change from baseline) ([1]; 1000 mg): -0.1 | Sustained attention domain score, Difference (TAK-063 LS mean - placebo LS mean, change from baseline) ([1]; 1000 mg): 0.7 | Verbal memory domain score, Difference (TAK-063 LS mean - placebo LS mean, change from baseline) ([1]; 1000 mg): -5.8 | Visual memory domain score, Difference (TAK-063 LS mean - placebo LS mean, change from baseline) ([1]; 1000 mg): -6.0 | Working memory domain score, Difference (TAK-063 LS mean - placebo LS mean, change from baseline) ([1]; 1000 mg): -2.7 | Single dose causing impairments in cognitive flexibility, executive functioning, processing and psychomotor speed, and visual memory ([1]; single dose, CNSVS): ≥ 100 mg | Aqueous solubility [2]: low
